Experimental data from US10426775B2, “Methods for treating Friedreich's ataxia with etravirine” (Fratagene Therapeutics srl, priority 2017, dated 2019).

Tests used:
Assay type in all cases: cell-based, human
[1] = tested on: frataxin precursor; assay: Western blot of frataxin in HEK293 cells expressing only endogenous frataxin; conditions: 10 μM etravirine
Procedure: Total cell extracts were prepared in lysis buffer (50 mM Tris-HCl, pH 7.5, 150 mM NaCl, 1% Igepal CA-630, 5 mM EDTA, 5 mM EGTA) supplemented with complete protease inhibitor cocktail (Roche Diagnostics, Indianapolis, Ind., USA). Lysates were clarified by centrifugation and supernatants were mixed with 4× Laemmli sample buffer (50 mM Tris pH 6.8, 2% SDS, 10% gliycerol, 0.0025% bromophenol blue, 5% beta-mercaptoethanol), boiled for 5 min, resolved by precast 12% SDS-PAGE gels (Bio-Rad Laboratories, Hercules, Calif., USA) and transferred to […] nitrocellulose membrane (TRANS-BLOT® TURBO™ Transfer pack, Bio-Rad). […] The immunoreactive bands were detected by ECL (GE Healthcare, Chalfont St. Giles, UK) and imaged with a ChemiDoc XRS system (Bio-Rad). […] All values are expressed as means±1 S.E.M.
The identified candidate drugs were individually validated for their ability to promote frataxin accumulation in different cell types. […] Protein extracts from the cell lines were resolved on SDS-PAGE and analyzed by western blot with anti-frataxin antibody and anti-tubulin as a loading control. […]
HEK 293-fxn stably expressing frataxin (A), HEK 293 (B), or FRDA lymphoblast cell line GM16203 (C) were treated with 10 μM etravirine for the indicated time points. Protein extracts were resolved on SDS-PAGE and analyzed by western blot with anti-frataxin antibody and anti-tubulin as a loading control. […]

[2] = tested on: frataxin; assay: Western blot of frataxin in lymphoblastoid cell lines derived from FRDA patients
Procedure: Lymphoblastoid cell lines from one healthy subject [GM16215] and 7 FRDA patients [GM16228, GM16203, GM16214, GM16223, GM16210, GM16205, GM16216], and primary fibroblasts from 2 FRDA patients [GM02816 and GM04078], were obtained from NIGMS Human Genetic Cell Repository, Coriell Institute for Medical Research (Camden, N.J., USA). Lymphoblasts and fibroblasts were grown at 37° C. and 5% CO2 and were respectively cultured in RPMI or DMEM, supplemented with 15% FBS, […] penicillin/streptomycin and 2 mM L-glutamine.
For the validation steps, etravirine (TMC125) was purchased from Selleckchem and was dissolved in DMSO at a stock concentration of 10 mM. HEK-293 Flp-In cells, stably overexpressing frataxin, were treated with the drug (or only DMSO) for 24 hours at final concentration of 10 μM. FRDA cells were treated with different concentration of etravirine. For all drug (and no drug) treatments, the final concentration of DMSO in the cell culture medium was 0.1%.
Total cell extracts were prepared in lysis buffer (50 mM Tris-HCl, pH 7.5, 150 mM NaCl, 1% Igepal CA-630, 5 mM EDTA, 5 mM EGTA) supplemented with complete protease inhibitor cocktail (Roche Diagnostics, Indianapolis, Ind., USA). Lysates were clarified by centrifugation and supernatants were mixed with 4× Laemmli sample buffer (50 mM Tris pH 6.8, 2% SDS, 10% gliycerol, 0.0025% bromophenol blue, 5% beta-mercaptoethanol), boiled for 5 min, resolved by precast 12% SDS-PAGE gels (Bio-Rad Laboratories, Hercules, Calif., USA) and transferred to […] nitrocellulose membrane (TRANS-BLOT® TURBO™ Transfer pack, Bio-Rad). Membranes were blocked with 5% non-fat dry milk, 0.1% Tween 20 in phosphate-buffered saline (PBS) and incubated with the indicated primary and secondary antibodies. The immunoreactive bands were detected by ECL (GE Healthcare, Chalfont St. Giles, UK) and imaged with a ChemiDoc XRS system (Bio-Rad). Densitometry analysis was performed using the ImageLab 4.1 Software (Bio-Rad). To analyse the western blot densitometry results, a Student's t test was applied. All values are expressed as means±1 S.E.M.
In order to evaluate whether the precursor that readily accumulates upon etravirine treatment can be converted into the mature functional form of frataxin, we tested the effect of different doses of etravirine, ranging from 100 nM to 10 μM, on a lymphoblastoid cell line, GM16203, derived from an FRDA patient. The cells were treated with the indicated doses of etravirine for 24 hours. Cell extracts were resolved on SDS-PAGE and analyzed by western blot analysis with anti-frataxin and anti-tubulin, as a loading control. We tested different doses, ranging from 100 nM to 3 μM, on the lymphoblastoid cell line GM16203.
A) FRDA lymphoblast cells, GM16203, were treated with the indicated doses of etravirine for 24 hours. Cell extracts were resolved on SDS-PAGE and analyzed by western blot analysis with anti-frataxin (lower panel) and anti-tubulin (upper panel), as a loading control. Int: intermediate frataxin; mat: mature frataxin; tub: tubulin. B) The graph represents the relative mature frataxin levels measured by densitometric analysis of independent blots and normalized with tubulin levels. Data represent the average of three independent experiments±S.E.M. p-values were calculated with Student's t-test (*p<0.05; **p<0.01)
We chose the minimal effective dose (300 nM) to evaluate the efficacy of etravirine over a broad range of cells derived from FRDA patients. In particular, we analysed 7 lymphoblastoid cell lines derived from FRDA patients and primary fibroblasts derived from two different FRDA patients. Each cell line was treated with 300 nM etravirine for 24 hours. Cell extracts were resolved on SDS-PAGE and analyzed by western blot analysis with anti-frataxin and anti-tubulin, as a loading control. Etravirine promotes increase in intermediate and mature frataxin levels in all the cell lines tested upon 24 hours of treatment (FIGS. 3A-3B). […]

[3] = tested on: frataxin; assay: as above; conditions: GM16214, 500 nM etravirine, 24 and 48 hours, compared with GM16215

Cc1cc(C#N)cc(C)c1Oc1nc(Nc2ccc(C#N)cc2)nc(N)c1Br [etravirine]
frataxin precursor accumulation [1]: can also be detected
frataxin precursor accumulation ([2]; FRDA lymphoblast cell line GM16203, 10 μM etravirine): can also be detected
average fold increase in mature frataxin levels ([2]; GM16203 lymphoblasts (830 GAA repeats), 300 nM etravirine, 24 hours): 1.41 fold
minimal effective dose (sufficient for a significant increase in intermediate and mature frataxin forms) ([2]; GM16203 lymphoblasts, 24 hours, doses 100 nM to 10 μM): 300 nM
frataxin form induced at the highest dose ([2]; GM16203 lymphoblasts, 24 hours, etravirine at 10 (μM)): mostly induces precursor accumulation
average fold increase in mature frataxin levels ([2]; GM16205 lymphoblasts (530 GAA repeats), 300 nM etravirine, 24 hours): 1.58 fold
average fold increase in mature frataxin levels ([2]; GM16210 lymphoblasts (580 GAA repeats), 300 nM etravirine, 24 hours): 1.22 fold
average fold increase in mature frataxin levels ([2]; GM16214 lymphoblasts (700 GAA repeats), 300 nM etravirine, 24 hours): 1.71 fold
frataxin accumulation in treated patient cells vs unaffected carrier cells ([2]; GM16214 treated vs GM16215 untreated, 24 hours, 300 nM etravirine): comparable to frataxin levels in untreated cells derived from healthy control
average fold increase in mature frataxin levels ([2]; GM16216 lymphoblasts (500 GAA repeats), 300 nM etravirine, 24 hours): 1.21 fold
average fold increase in mature frataxin levels ([2]; GM16223 lymphoblasts (630 GAA repeats), 300 nM etravirine, 24 hours): 1.22 fold
average fold increase in mature frataxin levels ([2]; GM16228 lymphoblasts (840 GAA repeats), 300 nM etravirine, 24 hours): 1.62 fold
overall increase in mature frataxin levels in cells derived from FRDA patients ([2]; all FRDA lymphoblastoid lines and fibroblasts tested, 300 nM etravirine, 24 hours): 50%
frataxin levels in FRDA cells during etravirine treatment [3]: increase over time
